Measurements from the NIST ThermoML archive (doi:10.1021/je060184i).
± gives the expanded uncertainty stated by the source.

Experiments:
[1] = Liquid, Closed cell (Static) method
[2] = excess molar enthalpy (molar enthalpy of mixing); xn = mol fraction of the nth substance listed; conditions: 298.15 K, 101 kPa, Liquid, Flow calorimetry

Row | SMILES | vapor or sublimation pressure ([1]; 273.15 K) [kPa] | vapor or sublimation pressure ([1]; 283.15 K) [kPa] | vapor or sublimation pressure ([1]; 293.15 K) [kPa] | vapor or sublimation pressure ([1]; 298.15 K) [kPa] | vapor or sublimation pressure ([1]; 303.15 K) [kPa] | vapor or sublimation pressure ([1]; 313.15 K) [kPa] | vapor or sublimation pressure ([1]; 323.15 K) [kPa] | vapor or sublimation pressure ([1]; 333.15 K) [kPa] | vapor or sublimation pressure ([1]; 343.15 K) [kPa] | vapor or sublimation pressure ([1]; 353.15 K) [kPa] | vapor or sublimation pressure ([1]; 363.15 K) [kPa] | also measured
1 | CCCOC(C)=O [propyl ethanoate] | 1.006 ± 0.018 | 1.909 ± 0.022 | 3.43 ± 0.029 | 4.514 ± 0.034 | 5.875 ± 0.041 | 9.645 ± 0.06 | 15.25 ± 0.09 | 23.33 ± 0.13 | 34.64 ± 0.19 | 50.07 ± 0.28 | 70.64 ± 0.38 | vapor or sublimation pressure ([1]; 263.15 K): 0.4981 ± 0.01 kPa
2 | CCCOC(C)=O [propyl ethanoate] + C1CCCCC1 | – | – | – | – | – | – | – | – | – | – | – | excess molar enthalpy ([2]; x1 = 0.1031): 0.127 ± 0.00263 kcal/mol; excess molar enthalpy ([2]; x1 = 0.1888): 0.195 ± 0.00287 kcal/mol; excess molar enthalpy ([2]; x1 = 0.2926): 0.244 ± 0.00311 kcal/mol; excess molar enthalpy ([2]; x1 = 0.3829): 0.265 ± 0.00311 kcal/mol; excess molar enthalpy ([2]; x1 = 0.4249): 0.268 ± 0.00311 kcal/mol; excess molar enthalpy ([2]; x1 = 0.4667): 0.269 ± 0.00311 kcal/mol; excess molar enthalpy ([2]; x1 = 0.4876): 0.267 ± 0.00311 kcal/mol; excess molar enthalpy ([2]; x1 = 0.5084): 0.265 ± 0.00311 kcal/mol; excess molar enthalpy ([2]; x1 = 0.5827): 0.252 ± 0.00311 kcal/mol; excess molar enthalpy ([2]; x1 = 0.6881): 0.215 ± 0.00287 kcal/mol; excess molar enthalpy ([2]; x1 = 0.7883): 0.163 ± 0.00263 kcal/mol; excess molar enthalpy ([2]; x1 = 0.8945): 0.0901 ± 0.00263 kcal/mol
3 | C=CCCCC [hex-1-ene] | 7.687 ± 0.051 | 12.64 ± 0.076 | 19.98 ± 0.12 | 24.77 ± 0.14 | 30.46 ± 0.17 | 44.98 ± 0.25 | 64.6 ± 0.35 | 90.44 ± 0.49 | 123.79 ± 0.67 | 165.99 ± 0.89 | 218.5 ± 1.2 | –
4 | CCCOC(C)=O [propyl ethanoate] + CCCCCCC | – | – | – | – | – | – | – | – | – | – | – | excess molar enthalpy ([2]; x1 = 0.1087): 0.121 ± 0.00263 kcal/mol; excess molar enthalpy ([2]; x1 = 0.1348): 0.143 ± 0.00263 kcal/mol; excess molar enthalpy ([2]; x1 = 0.2399): 0.214 ± 0.00287 kcal/mol; excess molar enthalpy ([2]; x1 = 0.3594): 0.259 ± 0.00311 kcal/mol; excess molar enthalpy ([2]; x1 = 0.457): 0.273 ± 0.00311 kcal/mol; excess molar enthalpy ([2]; x1 = 0.5004): 0.273 ± 0.00311 kcal/mol; excess molar enthalpy ([2]; x1 = 0.5217): 0.272 ± 0.00311 kcal/mol; excess molar enthalpy ([2]; x1 = 0.5427): 0.27 ± 0.00311 kcal/mol; excess molar enthalpy ([2]; x1 = 0.5634): 0.266 ± 0.00311 kcal/mol; excess molar enthalpy ([2]; x1 = 0.5838): 0.262 ± 0.00311 kcal/mol; excess molar enthalpy ([2]; x1 = 0.6544): 0.244 ± 0.00311 kcal/mol; excess molar enthalpy ([2]; x1 = 0.7495): 0.202 ± 0.00287 kcal/mol; excess molar enthalpy ([2]; x1 = 0.8346): 0.15 ± 0.00263 kcal/mol; excess molar enthalpy ([2]; x1 = 0.92): 0.0807 ± 0.00263 kcal/mol; excess molar enthalpy ([2]; x1 = 0.9526): 0.0495 ± 0.00239 kcal/mol
5 | C=CCCCC [hex-1-ene] + CCCOC(C)=O | – | – | – | – | – | – | – | – | – | – | – | excess molar enthalpy ([2]; x2 = 0.0943): 0.062 ± 0.00239 kcal/mol; excess molar enthalpy ([2]; x2 = 0.2122): 0.114 ± 0.00263 kcal/mol; excess molar enthalpy ([2]; x2 = 0.3238): 0.141 ± 0.00263 kcal/mol; excess molar enthalpy ([2]; x2 = 0.418): 0.151 ± 0.00263 kcal/mol; excess molar enthalpy ([2]; x2 = 0.4609): 0.152 ± 0.00263 kcal/mol; excess molar enthalpy ([2]; x2 = 0.4822): 0.152 ± 0.00263 kcal/mol; excess molar enthalpy ([2]; x2 = 0.5032): 0.151 ± 0.00263 kcal/mol; excess molar enthalpy ([2]; x2 = 0.5241): 0.15 ± 0.00263 kcal/mol; excess molar enthalpy ([2]; x2 = 0.5449): 0.148 ± 0.00263 kcal/mol; excess molar enthalpy ([2]; x2 = 0.6178): 0.139 ± 0.00263 kcal/mol; excess molar enthalpy ([2]; x2 = 0.7186): 0.117 ± 0.00263 kcal/mol; excess molar enthalpy ([2]; x2 = 0.8117): 0.0874 ± 0.00263 kcal/mol; excess molar enthalpy ([2]; x2 = 0.9076): 0.0475 ± 0.00239 kcal/mol
6 | CCCCCCC [heptane] | 1.531 ± 0.02 | 2.76 ± 0.025 | 4.736 ± 0.034 | 6.104 ± 0.04 | 7.787 ± 0.049 | 12.32 ± 0.07 | 18.85 ± 0.1 | 27.99 ± 0.15 | 40.43 ± 0.21 | 56.99 ± 0.29 | 78.59 ± 0.4 | –
7 | C1CCCCC1 [cyclohexane] | 3.73 ± 0.03 | 6.357 ± 0.043 | 10.37 ± 0.064 | 13.04 ± 0.078 | 16.26 ± 0.096 | 24.65 ± 0.14 | 36.24 ± 0.2 | 51.85 ± 0.28 | 72.39 ± 0.39 | 98.85 ± 0.53 | 132.33 ± 0.71 | vapor or sublimation pressure ([1]; 263.15 K): 2.082 ± 0.023 kPa
